Data published in patent US20240279233A1, “MACROCYCLIC TAK1 INHIBITORS” (Aqilion AB, priority 2021, published 2024).
≈ marks a conversion by molar mass, not a printed value. Where “and” joins values, the source holds several entries; their conditions need not be identical. Equal values may be shown once. Read-outs that look alike come from different tables or passages of the source.

How the values were obtained:
[1] = amide bond, 14-membered ring
[2] = target: human recombinant TAK1-TAB1 Kinase (TAK1 (1-303) and TAB1 (437-end)) (Homo sapiens (Human), UniProt O43318); test: TAK1 biochemical ADP-Glo kinase assay; conditions: MBP substrate
human recombinant TAK1-TAB1 Kinase (TAK1 (1-303) and TAB1 (437-end)), sequence (O43318 other isoform, or with tags, fused parts or gaps): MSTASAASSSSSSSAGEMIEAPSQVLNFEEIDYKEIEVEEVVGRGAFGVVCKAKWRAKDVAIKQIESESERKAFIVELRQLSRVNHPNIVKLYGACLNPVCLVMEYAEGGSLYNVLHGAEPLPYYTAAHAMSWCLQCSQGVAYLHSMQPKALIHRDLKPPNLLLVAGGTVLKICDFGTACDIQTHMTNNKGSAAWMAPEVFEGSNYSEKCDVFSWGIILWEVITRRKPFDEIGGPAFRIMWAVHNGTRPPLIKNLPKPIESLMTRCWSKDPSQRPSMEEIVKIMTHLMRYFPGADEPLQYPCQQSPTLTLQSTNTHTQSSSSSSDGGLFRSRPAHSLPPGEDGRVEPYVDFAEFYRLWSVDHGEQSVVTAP
Method in brief: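 Inhibition of human recombinant TAK1-TAB1 kinase was measured with a Promega ADP-Glo luminescence assay in 384-well plates. Compounds in 5% DMSO were pre-incubated 10 min with 2 μl TAK1-TAB1 (7.5 ng/μl) in buffer of Tris pH 7.5, MgCl2, DTT and BSA. MBP substrate and ATP were then added for 1 hour at room temperature. ADP-Glo reagent and kinase detection substrate followed, luminescence was read on an Envision, and IC50 came from non-linear regression.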

[3] = Solubility assay in phosphate buffer; conditions: phosphate buffer 100 mM, pH 7.4, room temperature, 20-24 h, LC-UV
Method: The aqueous solubility of selected example compounds was determined as follows; 6 μL of DMSO stock solution of the selected example was added to 594 μL phosphate buffer (100 mM, pH 7.4). The resulting mixture was equilibrated over night (20-24 h, Alligator Shaker, room temperature). The mixture was then filtered (Millex LH 0.45 μm) and the concentration/solubility was determined by LC-UV quantification.

[4] = 10 μM ATP, read-out: TAK1 Mean IC50 (nM) @ 10 μM ATP
[5] = phosphate buffer, pH 7.4, aqueous buffer, kinetic from dmso stock, Solubility (μM)
[6] = 1 mM ATP, read-out: TAK1 Mean IC50 (nM) @ 1 mM ATP

IC50 [2, 4] [nM]	solubility [3, 5] [µM]	Compound	other results
–	–	CC(=O)c1cc(C(=O)N(C)C)c2c(c1)nc1n2[C@H](C)CCCCNC(=O)c2cccc(c2)C(=O)N1	ring closure, yield after HPLC ([1]; from CC(=O)c1cc(C(=O)N(C)C)c2c(c1)nc(NC(=O)c1cccc(C(=O)O)c1)n2[C@H](C)CCCCN, HATU/DIEA, THF, 0.49 mM, 25.0 °C, 120.0 h): 34%
–	–	CC1CCCCNC(=O)c2cccc(c2)C(=O)Nc2nc3cccc(-c4ccc[nH]c4=O)c3n21 (stereo not shown)	ring closure, yield after HPLC ([1]; from CC(CCCCN)n1c(NC(=O)c2cccc(C(=O)O)c2)nc2cccc(-c3ccc[nH]c3=O)c21, TCFH/NMI, DMF, 3.6 mM, 1.0 h): 21%
–	–	CC1CCCCNC(=O)c2cccc(c2)C(=O)Nc2nc3cccc(C(=O)N(C)C)c3n21 (stereo not shown)	ring closure, yield after HPLC ([1]; from CC(CCCCN)n1c(NC(=O)c2cccc(C(=O)O)c2)nc2cccc(C(=O)N(C)C)c21, TCFH/NMI, MeCN/DMF, 1.6 mM, 1.0 h): 12%
–	–	CN(C)C(=O)c1cccc2nc3n(c12)C1(CCCCNC(=O)c2cccc(c2)C(=O)N3)CC1	ring closure, yield after HPLC ([1]; from CN(C)C(=O)c1cccc2nc(NC(=O)c3cccc(C(=O)O)c3)n(C3(CCCCN)CC3)c12, TCFH/NMI, MeCN/DMF, 0.31 mM, 25.0 °C, 16.0 h): 18%
–	–	CN1CCN(Cc2ccc3c(c2)nc2n3CCCCCNC(=O)c3cc(ccc3F)C(=O)N2)CC1	ring closure, yield after HPLC ([1]; from CN1CCN(Cc2ccc3c(c2)nc(NC(=O)c2ccc(F)c(C(=O)O)c2)n3CCCCCN)CC1, TCFH/NMI, DMF/MeCN, 2.2 mM, 25.0 °C, 2.0 h): 16%
–	–	C[C@@H]1CCCCNC(=O)c2cccc(c2)C(=O)Nc2nc3ccc(Cl)c(C(=O)N(C)C)c3n21	ring closure, yield after HPLC ([1]; from C[C@H](CCCCN)n1c(NC(=O)c2cccc(C(=O)O)c2)nc2ccc(Cl)c(C(=O)N(C)C)c21, HATU/DIEA, THF, 0.5 mM, 60.0 °C, 16.0 h): 5.3% and 5.7%
–	–	C[C@H]1CCCCNC(=O)c2cccc(c2)C(=O)Nc2nc3ccc(Cl)c(C(=O)N(C)C)c3n21	ring closure, yield after HPLC ([1]; from C[C@@H](CCCCN)n1c(NC(=O)c2cccc(C(=O)O)c2)nc2ccc(Cl)c(C(=O)N(C)C)c21, HATU/DIEA, THF, 0.5 mM, 60.0 °C, 16.0 h): 7.1% and 6.3%
–	–	Cc1noc(-c2cccc3nc4n(c23)[C@@H](C)CCCCNC(=O)c2cccc(c2)C(=O)N4)n1	ring closure, yield after HPLC ([1]; from Cc1noc(-c2cccc3nc(NC(=O)c4cccc(C(=O)O)c4)n([C@@H](C)CCCCN)c23)n1, TCFH/NMI, MeCN, 0.23 mM, 25.0 °C, 16.0 h): 92%
7	0.2 (≈ 0.0725 µg/mL)	Cc1ccc2c(c1)nc1n2CCCCCNC(=O)c2cccc(c2)C(=O)N1 [Example 4, 1^5-methyl-1^1H-2,6-diaza-1(2,1)-benzo[d]imidazola-4(1,3)-benzenacycloundecaphane-3,5-dione]	ring closure, yield after HPLC ([1]; from Cc1ccc2c(c1)nc(NC(=O)c1cccc(C(=O)O)c1)n2CCCCCN, HATU/TEA, MeCN, 50.0 °C, 16.0 h, 2 steps): 39%
8	–	CC1CCCCNC(=O)c2cccc(c2)C(=O)Nc2nc3cccc(-c4ccc[n+]([O-])c4)c3n21 (stereo not shown) [Example 33, (E)-3-(11-methyl-3,5-dioxo-1^2,1^3-dihydro-1^1H-2,6-diaza-1(2,1)-benzo[d]imidazola-4(1,3)-benzenacycloundecaphane-1^7-yl)pyridine 1-oxide]	ring closure, yield after HPLC ([1]; from CC(CCCCN)n1c(NC(=O)c2cccc(C(=O)O)c2)nc2cccc(-c3ccc[n+]([O-])c3)c21, HATU/DIEA, THF, 0.46 mM, 32.0 h, 2 steps): 7%
3	–	COC1(C)CN(C(=O)c2cccc3c2N2/C(=N/C(=O)c4cccc(c4)C(=O)NCCCCC2C)N3)C1 (stereo not shown) [Example 50, (E)-1^7-(3-methoxy-3-methylazetidine-1-carbonyl)-11-methyl-1^2,1^3-dihydro-1^1H-2,6-diaza-1(2,1)-benzo[d]imidazola-4(1,3)-benzenacycloundecaphane-3,5-dione]	solubility [3]: 80.0 µM (≈ 39.2 µg/mL)
6	–	C[C@@H]1CCCCNC(=O)c2cccc(c2)C(=O)Nc2nc3ccc(Cl)c(C(=O)N(C)C)c3n21 [Example 55, (R,E)-1^6-chloro-N,N,11-trimethyl-3,5-dioxo-1^2,1^3-dihydro-1^1H-2,6-diaza-1(2,1)-benzo[d]imidazola-4(1,3)-benzenacycloundecaphane-1^7-carboxamide]	solubility [3]: 74.0 µM (≈ 34.6 µg/mL)
16	–	C[C@@H]1CCCCNC(=O)c2cccc(c2)C(=O)Nc2nc3ccc(Cl)c(C(=O)N(C)C)c3n21 [Example 56, (R,E)-1^6-chloro-N,N,11-trimethyl-3,5-dioxo-1^2,1^3-dihydro-1^1H-2,6-diaza-1(2,1)-benzo[d]imidazola-4(1,3)-benzenacycloundecaphane-1^7-carboxamide]	solubility [3]: 7.1 µM (≈ 3.32 µg/mL)
3	44 (≈ 19.3 µg/mL)	[2H]C([2H])([2H])N(C(=O)c1cccc2c1N1/C(=N/C(=O)c3cccc(c3)C(=O)NCCCC[C@H]1C)N2)C([2H])([2H])[2H] [Example 64, (R,E)-11-methyl-N,N-bis(methyl-d3)-3,5-dioxo-1^2,1^3-dihydro-1^1H-2,6-diaza-1(2,1)-benzo[d]imidazola-4(1,3)-benzenacycloundecaphane-1^7-carboxamide]	–
2	93 (≈ 45.7 µg/mL)	C[C@@H]1CCCCNC(=O)c2cccc(c2)C(=O)Nc2nc3cc(C(C)(C)O)cc(C(=O)N(C)C)c3n21 [Example 69, (R,E)-1^5-(2-hydroxypropan-2-yl)-N,N,11-trimethyl-3,5-dioxo-1^2,1^3-dihydro-1^1H-2,6-diaza-1(2,1)-benzo[d]imidazola-4(1,3)-benzenacycloundecaphane-1^7-carboxamide]	–
7	90 (≈ 41.4 µg/mL)	C[C@H]1CCCCNC(=O)c2cccc(c2)C(=O)/N=C2\Nc3cccc(N4CCN(C)C4=O)c3N21 [Example 74, (S,E)-11-methyl-1^7-(3-methyl-2-oxoimidazolidin-1-yl)-1^2,1^3-dihydro-1H-2,6-diaza-1(2,1)-benzo[d]imidazola-4(1,3)-benzenacycloundecaphane-3,5-dione]	IC50 [2, 6]: 11 nM
5	15 (≈ 6.65 µg/mL)	C[C@H]1CCCCNC(=O)c2cccc(c2)C(=O)Nc2nc3cccc(-c4ncn(C)n4)c3n21 [Example 84, (S)-11-methyl-1^7-(1-methyl-1H-1,2,4-triazol-3-yl)-1^1H-2,6-diaza-1(2,1)-benzo[d]imidazola-4(1,3)-benzenacycloundecaphane-3,5-dione]	–
4	33 (≈ 14.6 µg/mL)	C[C@H]1CCCCNC(=O)c2cccc(c2)C(=O)Nc2nc3cccc(-c4ncnn4C)c3n21 [Example 86, (S,E)-11-methyl-1^7-(1-methyl-1H-1,2,4-triazol-5-yl)-1^1H-2,6-diaza-1(2,1)-benzo[d]imidazola-4(1,3)-benzenacycloundecaphane-3,5-dione]	IC50 [2, 6]: 9 nM
5	4.7 (≈ 2.08 µg/mL)	C[C@H]1CCCCNC(=O)c2cccc(c2)C(=O)/N=C2\Nc3cccc(-c4cn(C)nn4)c3N21 [Example 87, (S,E)-11-methyl-1^7-(1-methyl-1H-1,2,3-triazol-4-yl)-1^2,1^3-dihydro-1^1H-2,6-diaza-1(2,1)-benzo[d]imidazola-4(1,3)-benzenacycloundecaphane-3,5-dione]	IC50 [2, 6]: 9 nM
4	5 (≈ 2.37 µg/mL)	CN1CCN(C(=O)c2ccc3nc4n(c3c2)CCCCCNC(=O)c2cccc(c2)C(=O)N4)CC1 [Example 97, (E)-1^6-(4-methylpiperazine-1-carbonyl)-1^2,1^3-dihydro-1^1H-2,6-diaza-1(2,1)-benzo[d]imidazola-4(1,3)-benzenacycloundecaphane-3,5-dione]	–
5	4.7 (≈ 2.43 µg/mL)	O=C1/N=C2\Nc3ccc(C(=O)N4CCN(C5COC5)CC4)cc3N2CCCCCNC(=O)c2cccc1c2 [Example 98, (E)-1^6-(4-(oxetan-3-yl)piperazine-1-carbonyl)-1^2,1^3-dihydro-1^1H-2,6-diaza-1(2,1)-benzo[d]imidazola-4(1,3)-benzenacycloundecaphane-3,5-dione]	–
2	83.1 (≈ 38.3 µg/mL)	O=C1/N=C2\Nc3ccc(C(=O)N4CCNCC4)cc3N2CCCCCNC(=O)c2cccc1c2 [Example 100, (E)-1^6-(piperazine-1-carbonyl)-1^2,1^3-dihydro-1^1H-2,6-diaza-1(2,1)-benzo[d]imidazola-4(1,3)-benzenacycloundecaphane-3,5-dione]	–
8	20.8 (≈ 9.58 µg/mL)	CN1CCN(Cc2ccc3c(c2)N2CCCCCNC(=O)c4cccc(c4)C(=O)/N=C/2N3)CC1 [Example 101, (E)-1^6-((4-methylpiperazin-1-yl)methyl)-1^2,1^3-dihydro-1^1H-2,6-diaza-1(2,1)-benzo[d]imidazola-4(1,3)-benzenacycloundecaphane-3,5-dione]	–
4	90 (≈ 44.2 µg/mL)	C[C@H]1CCCCNC(=O)c2cccc(c2)C(=O)/N=C2\Nc3cc(C(C)(C)O)cc(C(=O)N(C)C)c3N21 [Example 123, (S,E)-1^5-(2-hydroxypropan-2-yl)-N,N,11-trimethyl-3,5-dioxo-1^2,1^3-dihydro-1^1H-2,6-diaza-1(2,1)-benzo[d]imidazola-4(1,3)-benzenacycloundecaphane-1^7-carboxamide]	IC50 [2, 6]: 11 nM

Compound	IC50 [2, 4] [nM]	solubility [3, 5] [µM]	other results
O=C1NCCOCCn2c(nc3ccccc32)NC(=O)c2cccc1c2 [Example 5, 1^1H-9-oxa-2,6-diaza-1(2,1)-benzo[d]imidazola-4(1,3)-benzenacycloundecaphane-3,5-dione]	11	–	ring closure, yield after HPLC ([1]; from NCCOCCn1c(NC(=O)c2cccc(C(=O)O)c2)nc2ccccc21, HATU/TEA, MeCN, 14.0 mM, 50.0 °C, 16.0 h, 2 steps): 16%; IC50 [2, 6]: 247 nM; solubility [3]: 15.2 µM (≈ 5.33 µg/mL)
